Data as given in US20030096831A1, “Ocular growth and nicotinic antagonists” (priority 2000, published 2003).
“And” between values parts separate entries of the source, which are not always exact repeats. Equal entries are not always repeated. “Also recorded” adds a separate entry of the source.

Tests used:
[1] = test system: chick eye (intraocular muscles, refraction, ocular dimensions); assay: Acute drug effects after a single intravitreal injection (pupil, refractometry, ultrasonography); format: in vivo, chicks
Method: Acute drug effects. To assess acute drug effects, other two-week old chicks (n=5/group) received a single unilateral intravitreal injection of one of the nicotinic antagonists at doses chosen based on drug effects on the growth of goggled eyes: 200 μg chlorisondamine, 50 μg and 1 μg mecamylamine, 5 μg methyllycaconitine or […] dihydro-β-erythroidine. Just before and at two hours and 24 hours after injection, both eyes were examined by refractometry and ultrasonography by the above methods.

[2] = test system: retina, retinal pigment epithelium, choroid; assay: Histopathological effects on goggled and never-goggled eyes; format: in vivo, chicks; settings: one week
Method: Histopathological effects. To identify potential histopathologic effects in other groups of monocularly deprived or never-goggled one-week old chicks, chlorisondamine (200 or 100 μg every other day; n=5-6/group), mecamylamine (200 or 50 μg daily; n=5-8/group) or saline vehicle (n=3-9/group) was administered by intravitreal injection to the goggled eyes or to one of the open eyes of never-goggled chicks with vehicle to the contralateral eye, using the identical protocol as above. After one week of treatment, the above protocols provided refraction, ultrasound and caliper measurements. The eyes were then immersion fixed in 3% glutaraldehyde/0.5% paraformaldehyde in 0.1M phosphate buffer, pH 7.4. The posterior segments were either embedded in paraffin, cut at 5 μm thickness and stained with hematoxylin and eosin, or embedded in historesin, cut at 3 μm or 5 μm thickness and stained with 0.5% azure II/0.5% methylene blue in 1% borate.

non-goggled eyes = assay: Eye growth and refraction of non-goggled (open) eyes, intravitreal drug for one week
[3] = test system: goggled eyes (form-deprivation myopia); assay: Form-deprivation myopia in unilaterally goggled chicks, intravitreal drug for one week
form deprived eye = assay: Longer term effects of single-dose chlorisondamine on form deprivation myopia; format: in vivo, chicks; settings: for Refraction Difference: goggled minus contralateral eye
Method: Longer term effects of single-dose chlorisondamine. In a separate experiment, another group of goggled chicks received a single intravitreal dose of 200 μg of chlorisondamine to the form deprived eye and saline to the contralateral eye only at the time of goggle application. They were compared to a group of unilaterally goggled chicks receiving a single saline injection to both eyes only at the time of goggle application. Neither group received subsequent intraocular injections. These chicks were evaluated by refractometry and ultrasound 4 days later, using ketamine/xylazine anesthesia. At one week after goggle application and single drug injection, the same chicks were evaluated again with refractometry, ultrasonography and caliper measurements of enucleated eyes as described above.

[4] = 2 hours after 200 μg single intravitreal injection
[5] = 24 hours after 200 μg single intravitreal injection
[6] = 100 μg every other day, goggled or non-goggled eyes
[7] = never-goggled chicks, drug treated vs contralateral vehicle treated eye, ANOVA on ranks
[8] = non-goggled chicks, treated eyes, P<0.05
[9] = difference goggled vs contralateral open eye, intravitreal, one week, ANOVA over all doses
[10] = goggled chicks, P<0.05, dose groups that differ, listed as Chlorisondamine
[11] = 1 Week after single 200 μg dose
[12] = 4 Days after single 200 μg dose

Structure (SMILES): C[N+](C)(C)CC[N+]1(C)Cc2c(Cl)c(Cl)c(Cl)c(Cl)c2C1 [chlorisondamine, chlorisondamine diiodide]
- acute effect on ultrasound measurements of ocular dimensions, in words ([1]; 2 and 24 hours after single intravitreal injection): transiently reducing axial and vitreous cavity lengths at the 2 hour but not at the 24 hour reading
- reduction in axial length by ultrasonography [1, 4]: 0.16±0.04 mm
- reduction in posterior chamber depth by ultrasonography [1, 4]: 0.20±0.07 mm
- reduction of lens thickness [1, 4]: 0.12±0.04 mm
- axial length and posterior chamber depth at 24 hours [1, 5]: returned to baseline
- reduction of lens thickness [1, 5]: 0.16±0.05 mm
- pupil diameter, change from baseline ([1]; 24 hours after single intravitreal injection (chlorisondamine 200 μg)): 0.7±0.2 mm
- pupil diameter, change from baseline ([1]; two hours after single intravitreal injection of 200 μg): 0.8±0.1 mm
- gross inspection of the eye cups [2, 6]: either a normal fundus or only mild peripheral pigmentary changes
- histology [2, 6]: Some eyes had normal histology, some showed a single large, smooth hyper-pigmented inclusion within a rare RPE cell as the sole detectable histologic change, and some had a small isolated peripheral patch of the marked RPE/choriocapillaris pathology
- gross inspection of the eye cup ([2]; 200 μg every other day, most goggled eyes (4/5) and all never-goggled eyes (n=5)): mild to marked mottling and depigmentation of the mid-peripheral fundus
- histology of tissue sections ([2]; 200 μg every other day, regions corresponding to peripheral depigmented areas): marked disruption and clumping of cells of the retinal pigment epithelium (RPE)
- equatorial expansion of the vitreous cavity, non-goggled drug-treated eyes (non-goggled eyes; never-goggled chicks, ANOVA on ranks): did not reach statistical significance
- increase in lens thickness (non-goggled eyes; never-goggled chicks, both eyes of the 10 μg group compared to 50, 100 or 200 μg doses and saline chicks): about 0.1 mm
- axial expansion of the vitreous cavity, non-goggled drug-treated eyes (non-goggled eyes; [7]): growth reduction was confined to the vitreous cavity; also recorded: inhibited the axial expansion of the vitreous cavity
- axial length by calipers, non-goggled drug-treated eyes (non-goggled eyes; [7]): reduced the axial growth of drug-treated eyes; also recorded: reduced axial length
- axial length by ultrasound, non-goggled drug-treated eyes (non-goggled eyes; [7]): reduced the axial growth of drug-treated eyes; also recorded: reduced axial length
- refraction of non-goggled drug-treated eyes (non-goggled eyes; [7]): hyperopic shift in refraction; also recorded: shifted overall refraction towards hyperopia
- Ultrasound measurements vitreous cavity depth: statistically significant post hoc pairwise comparisons (Tukey test) (non-goggled eyes; [8]): 100 μg and 50 μg and 100 μg vs. 50 μg
- refraction: statistically significant post hoc pairwise comparisons (Tukey test) (non-goggled eyes; [8]): 200 μg and 10 μg and 200 μg vs. 10 μg
- axial length measured by digital calipers, goggled eyes, drug effect [3, 9]: inhibited the excessive axial elongation developing beneath a goggle
- axial length measured by ultrasound, goggled eyes, drug effect [3, 9]: inhibited the excessive axial elongation developing beneath a goggle
- equatorial diameter measured by calipers (equatorial expansion of vitreous cavity), goggled eyes, drug effect [3, 9]: reduced the vitreous cavity expansion
- refraction of goggled eyes (myopic refractive error), drug effect [3, 9]: reduced the myopic refractive error; also recorded: influenced the myopic refraction occurring beneath a goggle
- vitreous cavity length measured by ultrasound, goggled eyes, drug effect [3, 9]: reduced the vitreous cavity expansion
- Ultrasound measurements vitreous cavity depth: statistically significant post hoc pairwise comparisons (Tukey test) ([3]; goggled chicks, P<0.05, dose groups that differ): 100 μg vs. 50 μg
- Ultrasound measurements axial length: statistically significant post hoc pairwise comparisons (Tukey test) [3, 10]: significant drug effects compared to the vehicle-treated controls
- Ultrasound measurements vitreous cavity depth: statistically significant post hoc pairwise comparisons (Tukey test) [3, 10]: significant drug effects compared to the vehicle-treated controls
- refraction: statistically significant post hoc pairwise comparisons (Tukey test) [3, 10]: significant drug effects compared to the vehicle-treated controls
- overall effect on excessive ocular growth / experimental myopia of goggled eyes ([3]; intravitreal, one week): reduced the excessive ocular growth occurring beneath a goggle
- anterior chamber depth of goggled eyes, drug effect ([3]; intravitreal, one week, ANOVA): no statistically significant effect
- axial length difference (ultrasound), ratio-chlorisondamine/vehicle (form deprived eye; 1 Week): 0.54
- vitreous cavity length difference, ratio-chlorisondamine/vehicle (form deprived eye; 1 Week): 0.71
- Caliper Measurements axial length difference (form deprived eye; [11]): 0.22 ± 0.10 mm**
- Caliper Measurements equatorial diameter difference (form deprived eye; [11]): 0.17 ± 0.07 mm****
- Ultrasound Measurements axial length difference (form deprived eye; [11]): 0.33 ± 0.11 mm**
- Ultrasound Measurements vitreous cavity length difference (form deprived eye; [11]): 0.49 ± 0.08 mm*
- Refraction Difference (form deprived eye; [11]): −8.58 ± 2.06 diopters
- axial length difference (ultrasound), ratio-chlorisondamine/vehicle (form deprived eye; 4 Days): 0.47
- vitreous cavity length difference, ratio-chlorisondamine/vehicle (form deprived eye; 4 Days): 0.70
- Ultrasound Measurements axial length difference (form deprived eye; [12]): 0.20 ± 0.07 mm***
- Ultrasound Measurements vitreous cavity length difference (form deprived eye; [12]): 0.28 ± 0.06 mm
- Refraction Difference (form deprived eye; [12]): −2.98 ± 1.88 diopters**
- response for form deprivation after a single dose, in words (form deprived eye; single dose of 200 μg at the time of goggle application, over the next week): significantly blunted the response for form deprivation over the next week
